Measurements as given in PubChem BioAssay AID330 (DTP/NCI, 2004).
Values joined by “and” are separate entries in the source; they are usually repeats but may differ in a detail not shown here. Equal values may be shown once. Toxic doses and inconclusive results are not listed.

Test system: P388 leukemia ip, CD2F1 mice, survival T/C
Test: NCI In Vivo Anticancer Drug Screen. Data for tumor model P388 Leukemia (intraperitoneal) in CD2F1 (CDF1) mice
Details: endpoint: median survival time, higher = longer survival
Protocol: The antitumor activity of compounds was measured in mice bearing transplantable tumors. Survival or tumor size were measured and the results are expressed as the measurement made in the treated group (T) divided by the measurement made in the vehicle treated control group (C). The tumor model used in this assay is P388 Leukemia (intraperitoneal) in CD2F1 (CDF1) mice

[1] = dose: 50.0 mg/kg/injection, schedule: Q01DX005 (ip), vehicle: saline with Tween-80
[2] = dose: 12.5 mg/kg/injection, schedule: Q04DX003 (ip), vehicle: saline
[3] = dose: 25.0 mg/kg/injection, schedule: Q04DX003 (ip), vehicle: saline
[4] = dose: 50.0 mg/kg/injection, schedule: Q01DX005 (ip), vehicle: Klucel (hydroxypropylcellulose) (HPC)
[5] = dose: 100.0 mg/kg/injection, schedule: Q01DX005 (ip), vehicle: Klucel (hydroxypropylcellulose) (HPC)
[6] = dose: 200.0 mg/kg/injection, schedule: Q01DX005 (ip), vehicle: Klucel (hydroxypropylcellulose) (HPC)
[7] = dose: 50.0 mg/kg/injection, schedule: Q01DX009 (ip), vehicle: saline with Tween-80
[8] = dose: 100.0 mg/kg/injection, schedule: Q01DX009 (ip), vehicle: saline with Tween-80
[9] = dose: 200.0 mg/kg/injection, schedule: Q01DX009 (ip), vehicle: saline with Tween-80

CC12Cc3cnoc3C=C1CCC1C2CCC2(C)C1CCC2(C)O (stereo not drawn)
T/C [1]: 93 % of control | T/C (dose: 100.0 mg/kg/injection, schedule: Q01DX005 (ip), vehicle: saline with Tween-80): 86 % of control

CSC(C)(C(=N)C#N)N(C)C (stereo not drawn)
T/C [2]: 103 % of control | T/C [3]: 100 % of control | T/C (dose: 50.0 mg/kg/injection, schedule: Q04DX003 (ip), vehicle: saline): 104 % of control

O=C(O)CCCC(O)(O)C(=O)O
T/C [4]: 108 % of control | T/C [5]: 94 % of control | T/C [6]: 96 % of control

CCCC(O)CN (stereo not drawn)
T/C (dose: 100.0 mg/kg/injection, schedule: Q04DX003 (ip), vehicle: saline): 103 % of control | T/C (dose: 200.0 mg/kg/injection, schedule: Q04DX003 (ip), vehicle: saline): 107 % of control

NC1=NC(CNC(=O)c2cccc([N+](=O)[O-])c2)N(c2cccc(Cl)c2)C(N)=N1 (stereo not drawn)
T/C (dose: 50.0 mg/kg/injection, schedule: Q01DX005 (ip), vehicle: saline): 100 % of control | T/C (dose: 100.0 mg/kg/injection, schedule: Q01DX005 (ip), vehicle: saline): 107 % of control | T/C (dose: 200.0 mg/kg/injection, schedule: Q01DX005 (ip), vehicle: saline): 109 % of control

Cc1oc2c(C)c3oc(=O)cc(C)c3cc2c1CN
T/C (dose: 12.5 mg/kg/injection, schedule: Q01DX001 (ip), vehicle: Klucel (hydroxypropylcellulose) (HPC)): 111 % of control | T/C (dose: 25.0 mg/kg/injection, schedule: Q01DX001 (ip), vehicle: Klucel (hydroxypropylcellulose) (HPC)): 96 % of control

FC(F)(F)c1ccc2c(c1)N(CCCN1CCN(CCCl)CC1)c1ccccc1S2
T/C (dose: 6.25 mg/kg/injection, schedule: Q04DX003 (ip), vehicle: saline): 96 % of control | T/C [2]: 101 % of control | T/C [3]: 115 % of control

COc1nc(COC(=O)NC(C)C)c(COC(=O)NC(C)C)n1C
T/C (dose: 12.5 mg/kg/injection, schedule: Q01DX005 (ip), vehicle: Klucel (hydroxypropylcellulose) (HPC)): 109 % of control | T/C (dose: 25.0 mg/kg/injection, schedule: Q01DX005 (ip), vehicle: Klucel (hydroxypropylcellulose) (HPC)): 118 % of control | T/C [4]: 123 % of control | T/C [5]: 166 % of control | T/C [6]: 189 % of control | T/C (dose: 400.0 mg/kg/injection, schedule: Q01DX005 (ip), vehicle: Klucel (hydroxypropylcellulose) (HPC)): 196 % of control

CSCc1cc(Cl)cc2c1OCOC2
T/C [7]: 102 % of control | T/C [8]: 96 % of control | T/C [9]: 100 % of control

CC1=CCC(C)C(C)(C)C1CC/C(C)=C/CCC1(C)C(CCCO)/C(=C(\C)C=O)CCC1(C)O (stereo not drawn)
T/C (dose: 4.5 mg/kg/injection, schedule: Q01DX005 (ip), vehicle: Klucel (hydroxypropylcellulose) (HPC)): 152 % of control

CC(C)C[NH-].CC(C)C[NH-].[Cl][Pt+2]([Cl])([Cl])[Cl]
T/C (dose: 5.56 mg/kg/injection, schedule: Q01DX009 (ip), vehicle: saline with Tween-80): 169 % of control | T/C (dose: 8.33 mg/kg/injection, schedule: Q01DX009 (ip), vehicle: saline with Tween-80): 166 % of control | T/C (dose: 12.5 mg/kg/injection, schedule: Q01DX009 (ip), vehicle: saline with Tween-80): 166 % of control and 181 % of control

CC(=O)OCC1OC(n2cnc3c(Cl)nc(Cl)nc32)C(OC(C)=O)C1OC(C)=O (stereo not drawn)
T/C [4]: 102 % of control | T/C [5]: 102 % of control | T/C [6]: 115 % of control

CCCCCCCCCCNCCSSCc1ccccc1
T/C (dose: 12.5 mg/kg/injection, schedule: Q04DX002 (ip), vehicle: Klucel (hydroxypropylcellulose) (HPC)): 100 % of control | T/C (dose: 25.0 mg/kg/injection, schedule: Q04DX002 (ip), vehicle: Klucel (hydroxypropylcellulose) (HPC)): 100 % of control | T/C (dose: 50.0 mg/kg/injection, schedule: Q04DX002 (ip), vehicle: Klucel (hydroxypropylcellulose) (HPC)): 109 % of control | T/C (dose: 100.0 mg/kg/injection, schedule: Q04DX002 (ip), vehicle: Klucel (hydroxypropylcellulose) (HPC)): 105 % of control

CCc1cccc(CC)c1NC(=S)Nc1c(C)n(C)n(-c2ccccc2)c1=O
T/C (dose: 50.0 mg/kg/injection, schedule: Q01DX009 (ip), vehicle: Klucel (hydroxypropylcellulose) (HPC)): 106 % of control | T/C (dose: 100.0 mg/kg/injection, schedule: Q01DX009 (ip), vehicle: Klucel (hydroxypropylcellulose) (HPC)): 103 % of control | T/C (dose: 200.0 mg/kg/injection, schedule: Q01DX009 (ip), vehicle: Klucel (hydroxypropylcellulose) (HPC)): 95 % of control

CC1(OC(=O)c2ccc(F)cc2)CC(C)(C)[N+]([O-])=N1 (stereo not drawn)
T/C (dose: 12.5 mg/kg/injection, schedule: Q01DX009 (ip), vehicle: other): 113 % of control | T/C (dose: 25.0 mg/kg/injection, schedule: Q01DX009 (ip), vehicle: other): 101 % of control | T/C (dose: 50.0 mg/kg/injection, schedule: Q01DX009 (ip), vehicle: other): 118 % of control | T/C (dose: 100.0 mg/kg/injection, schedule: Q01DX009 (ip), vehicle: other): 118 % of control | T/C (dose: 200.0 mg/kg/injection, schedule: Q01DX009 (ip), vehicle: other): 123 % of control

CNC(=O)OCc1c(COC(=O)NC)c(-c2cccs2)n2c1CCC2
T/C (dose: 12.5 mg/kg/injection, schedule: Q01DX005 (ip), vehicle: saline with Tween-80): 122 % of control | T/C [1]: 104 % of control

COC(=O)c1ccccc1N=NNc1ccccc1C#N
T/C (dose: 100.0 mg/kg/injection, schedule: Q01DX001 (ip), vehicle: Klucel (hydroxypropylcellulose) (HPC)): 109 % of control | T/C (dose: 200.0 mg/kg/injection, schedule: Q01DX001 (ip), vehicle: Klucel (hydroxypropylcellulose) (HPC)): 103 % of control | T/C (dose: 400.0 mg/kg/injection, schedule: Q01DX001 (ip), vehicle: Klucel (hydroxypropylcellulose) (HPC)): 94 % of control

O=C1OC(=O)C2=C1CCC2
T/C (dose: 12.5 mg/kg/injection, schedule: Q01DX009 (ip), vehicle: distilled water + Tween-80): 100 % of control | T/C (dose: 25.0 mg/kg/injection, schedule: Q01DX009 (ip), vehicle: distilled water + Tween-80): 100 % of control | T/C (dose: 50.0 mg/kg/injection, schedule: Q01DX009 (ip), vehicle: distilled water + Tween-80): 91 % of control

COc1ccccc1C(=O)C(CN(C)C)CN(C)C
T/C (dose: 1.87 mg/kg/injection, schedule: Q01DX005 (ip), vehicle: saline): 105 % of control | T/C (dose: 3.75 mg/kg/injection, schedule: Q01DX005 (ip), vehicle: saline): 108 % of control | T/C (dose: 7.5 mg/kg/injection, schedule: Q01DX005 (ip), vehicle: saline): 112 % of control | T/C (dose: 60.0 mg/kg/injection, schedule: Q01DX005 (ip), vehicle: saline): 112 % of control

OCC1OC(n2cnc3c2NC=NC[C@H]3O)C(O)C1O (stereo partly drawn)
T/C (dose: 0.1 mg/kg/injection, schedule: Q01DX009 (ip), vehicle: saline): 106 % of control | T/C (dose: 0.2 mg/kg/injection, schedule: Q01DX005 (ip), vehicle: saline): 104 % of control | T/C (dose: 0.2 mg/kg/injection, schedule: Q01DX009 (ip), vehicle: saline): 111 % of control | T/C (dose: 0.4 mg/kg/injection, schedule: Q01DX005 (ip), vehicle: saline): 107 % of control | T/C (dose: 0.4 mg/kg/injection, schedule: Q01DX009 (ip), vehicle: saline): 103 % of control | T/C (dose: 0.78 mg/kg/injection, schedule: Q01DX005 (ip), vehicle: saline): 99 % of control | T/C (dose: 0.8 mg/kg/injection, schedule: Q01DX005 (ip), vehicle: saline): 100 % of control | T/C (dose: 1.56 mg/kg/injection, schedule: Q01DX005 (ip), vehicle: saline): 97 % of control

CNC(=O)OC/C=C/c1ccccc1
T/C [7]: 99 % of control | T/C [8]: 99 % of control | T/C [9]: 92 % of control

Clc1ccc(-c2cc(-c3cc(-c4ccc(Cl)cc4Cl)n[nH]3)[nH]n2)c(Cl)c1
T/C (dose: 60.0 mg/kg/injection, schedule: Q01DX005 (ip), vehicle: Klucel + Tween-80): 100 % of control | T/C (dose: 120.0 mg/kg/injection, schedule: Q01DX005 (ip), vehicle: Klucel + Tween-80): 98 % of control | T/C (dose: 240.0 mg/kg/injection, schedule: Q01DX005 (ip), vehicle: Klucel + Tween-80): 90 % of control

CCCCCCCCCCCCC1(O)OC(=O)C(C)=C1C (stereo not drawn)
T/C (dose: 12.5 mg/kg/injection, schedule: Q04DX003 (ip), vehicle: saline with Tween-80): 108 % of control | T/C (dose: 25.0 mg/kg/injection, schedule: Q04DX003 (ip), vehicle: saline with Tween-80): 102 % of control | T/C (dose: 50.0 mg/kg/injection, schedule: Q04DX003 (ip), vehicle: saline with Tween-80): 106 % of control

CCCCCCCCCCCC(O)CCCCC (stereo not drawn)
T/C (dose: 100.0 mg/kg/injection, schedule: Q04DX003 (ip), vehicle: other): 100 % of control | T/C (dose: 200.0 mg/kg/injection, schedule: Q04DX003 (ip), vehicle: other): 100 % of control | T/C (dose: 400.0 mg/kg/injection, schedule: Q04DX003 (ip), vehicle: other): 100 % of control
